From patent US20250304551A1 (SHANGHAI APEIRON THERAPEUTICS COMPANY LIMITED, priority 2022, published 2025)

How the values were obtained:
[1] = target: T1, Human KIF18A (amino acid sequence 1-417) (Homo sapiens, UniProt Q8NI77); assay: Enzyme activity detection experiment (ADP-Glo, KIF18A with tubulin and ATP); type: biochemical; conditions: tubulin 60 μg/mL, ATP 25 μM, KIF18A protein 2.5 nM, 120 minutes at ambient temperature, ADP-Glo chemiluminescence
T1 construct: purchased Viva Biotech (Shanghai) Ltd
T1 sequence (Q8NI77 1-417): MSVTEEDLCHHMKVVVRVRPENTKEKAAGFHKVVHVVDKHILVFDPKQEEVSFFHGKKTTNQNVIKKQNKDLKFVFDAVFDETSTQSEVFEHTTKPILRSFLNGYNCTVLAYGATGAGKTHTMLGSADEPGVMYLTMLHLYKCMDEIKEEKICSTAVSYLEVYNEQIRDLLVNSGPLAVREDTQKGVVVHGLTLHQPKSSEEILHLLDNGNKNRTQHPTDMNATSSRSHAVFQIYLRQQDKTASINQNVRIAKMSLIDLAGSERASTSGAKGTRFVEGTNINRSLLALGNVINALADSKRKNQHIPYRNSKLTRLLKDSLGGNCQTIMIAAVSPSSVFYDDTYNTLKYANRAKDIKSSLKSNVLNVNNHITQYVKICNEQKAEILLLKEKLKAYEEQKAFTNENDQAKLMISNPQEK
T1 sequence (Q2XVP4 whole entry partner): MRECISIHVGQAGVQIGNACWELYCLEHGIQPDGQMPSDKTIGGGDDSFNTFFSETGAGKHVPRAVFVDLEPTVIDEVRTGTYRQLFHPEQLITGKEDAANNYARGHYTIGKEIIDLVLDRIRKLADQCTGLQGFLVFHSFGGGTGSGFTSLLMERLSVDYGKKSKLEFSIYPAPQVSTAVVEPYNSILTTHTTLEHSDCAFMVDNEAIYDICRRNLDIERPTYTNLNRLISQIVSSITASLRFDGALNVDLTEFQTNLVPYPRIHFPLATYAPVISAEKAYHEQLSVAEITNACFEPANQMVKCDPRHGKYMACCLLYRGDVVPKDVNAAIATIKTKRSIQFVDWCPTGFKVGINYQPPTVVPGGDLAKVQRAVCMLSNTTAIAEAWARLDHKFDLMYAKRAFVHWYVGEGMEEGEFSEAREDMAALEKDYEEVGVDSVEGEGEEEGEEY
T1 sequence (P02554 whole entry partner): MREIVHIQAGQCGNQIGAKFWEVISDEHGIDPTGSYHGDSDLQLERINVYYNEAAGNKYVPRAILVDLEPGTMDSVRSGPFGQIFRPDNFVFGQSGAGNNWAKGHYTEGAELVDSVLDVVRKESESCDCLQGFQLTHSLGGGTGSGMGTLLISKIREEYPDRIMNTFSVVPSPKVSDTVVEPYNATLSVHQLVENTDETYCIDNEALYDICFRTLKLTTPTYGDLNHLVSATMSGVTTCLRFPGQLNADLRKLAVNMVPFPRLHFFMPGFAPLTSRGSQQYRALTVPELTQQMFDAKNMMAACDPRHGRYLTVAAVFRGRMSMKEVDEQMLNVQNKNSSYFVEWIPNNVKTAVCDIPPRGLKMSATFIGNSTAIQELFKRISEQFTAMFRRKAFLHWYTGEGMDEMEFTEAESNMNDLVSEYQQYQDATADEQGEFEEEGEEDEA
How it was run: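 KIF18A (2.5 nM) was incubated with tubulin (60 μg/mL as added), ATP (25 μM) and serially diluted compound for 120 min at ambient temperature. ADP formed was detected by ADP-Glo: reagent for 30 min, then detection reagent for 30 min in the dark, with chemiluminescence read-out.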

OVCAR3 cells = assay: Cell proliferation activity test, OVCAR3 (CyQUANT Direct); type: cell-based; conditions: Homo sapiens, OVCAR-3, 72 h, 3 days incubation, CyQUANT fluorescence detection, read-out: OVCAR-3 Cell Viability_IC50_nM
How it was run: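 OVCAR3 cells seeded overnight, then exposed to compounds at 0-10 μM final (0.20% DMSO) for 3 days at 37° C. Cell number read by CyQUANT Direct fluorescence after 60 min at 37° C.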

HT29 cells = assay: CyQuant cell proliferation activity test, HT29; type: cell-based; conditions: Homo sapiens, HT-29, 72 h, HT29 2000 cells per well, 3 days incubation, initial concentration 3000 nM, IC50 by XLFIT, read-out: HT-29 Cell Viability_IC50_nM
How it was run: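 HT29 cells (2000/well, RPMI-1640 with 10% FBS) were plated overnight, then exposed to compound for 3 days at 37 °C, 5% CO2. Dosing was 9 concentrations, 3-fold dilutions from 3000 nM, in 0.20% DMSO. Proliferation was read with CyQuant reagent after 1 h, and IC50 derived from the curves.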

Row | Compound | IC50 [1] | IC50 (OVCAR3 cells) | IC50 (HT29 cells)
1 | O=S(=O)(CCO)Nc1ccc(-n2cc(-c3cc(NCc4ccccn4)nc(N4CCC(F)(F)CC4)n3)nn2)c(N2CCC3(CC2)CC3)c1 [Example 59, N-(3-{6-azaspiro[2.5]octan-6-yl}-4-{4-[2-(4,4-difluoropiperidin-1-yl)-6-{[(pyridine-2-yl)methyl]amino}pyrimidin-4-yl]-1H-1,2,3-triazol-1-yl}phenyl)-2-hydroxyethane-1-sulfonamide] | 437 nM | 26 nM | 34 nM
2 | O=S(=O)(CCO)Nc1ccc(-n2cc(-c3cc(NCc4cccnc4)nc(N4CCC(F)(F)CC4)n3)nn2)c(N2CCC3(CC2)CC3)c1 [Example 60, N-(3-{6-azaspiro[2.5]octan-6-yl}-4-{4-[2-(4,4-difluoropiperidin-1-yl)-6-{[(pyridine-3-yl)methyl]amino}pyrimidin-4-yl]-1H-1,2,3-triazol-1-yl}phenyl)-2-hydroxyethane-1-sulfonamide] | 433 nM | 29 nM | 41 nM
3 | COc1cc(-c2cn(-c3ccc(NS(=O)(=O)CCO)cc3N3CCC4(CC3)CC4)nn2)cc(N2CCC(F)(F)CC2)n1 [Example 62, N-(4-(4-(2-(4,4-difluoropiperidin-1-yl)-6-methoxypyridin-4-yl)-1H-1,2,3-triazol-1-yl)-3-(6-azaspiro[2.5]octan-6-yl)phenyl)-2-hydroxyethane-1-sulfonamide] | 272 nM | 59 nM | 60 nM
4 | Cc1cc(-c2cn(-c3ccc(NS(=O)(=O)CCO)cc3N3CCC4(CC3)CC4)nn2)cc(N2CCC(F)(F)CC2)n1 [Example 64, N-(4-(4-(2-(4,4-difluoropiperidin-1-yl)-6-methylpyridin-4-yl)-1H-1,2,3-triazol-1-yl)-3-(6-azaspiro[2.5]octan-6-yl)phenyl)-2-hydroxyethane-1-sulfonamide] | 177 nM | 27 nM | 27 nM
5 | Cc1cc(-c2cn(-c3ccc(NS(=O)(=O)CCO)nc3N3CCC4(CC3)CC4)nn2)nc(N2CCC(F)(F)CC2)n1 [Example 66, N-(6-{6-azaspiro[2.5]octan-6-yl}-5-{4-[2-(4,4-difluoropiperidin-1-yl)-6-methylpyrimidin-4-yl]-1H-1,2,3-triazol-1-yl}pyridin-2-yl)-2-hydroxyethane-1-sulfonamide] | 62 nM | 52.7 nM | 54 nM
6 | Cc1cc(-c2cn(-c3cnc(NS(=O)(=O)CCO)cc3N3CCC4(CC3)CC4)nn2)nc(N2CCC(F)(F)CC2)n1 [Example 67, N-(4-{6-azaspiro[2.5]octan-6-yl}-5-{4-[2-(4,4-difluoropiperidin-1-yl)-6-methylpyrimidin-4-yl]-1H-1,2,3-triazol-1-yl}pyridin-2-yl)-2-hydroxyethane-1-sulfonamide] | 12 nM | 25 nM | 19 nM
7 | Cc1cc(-c2nnn(-c3ccc(NS(=O)(=O)CCO)cc3N3CCC4(CC3)CC4)c2C)nc(N2CCC(F)(F)CC2)n1 [Example 69, N-(3-{6-azaspiro[2.5]octan-6-yl}-4-{4-[2-(4,4-difluoropiperidin-1-yl)-6-methylpyrimidin-4-yl]-5-methyl-1H-1,2,3-triazol-1-yl}phenyl)-2-hydroxyethane-1-sulfonamide] | > 3000 nM | 1500 nM | > 3000 nM
8 | CC(C)(O)c1ccc(-c2cn(-c3ccc(NS(=O)(=O)CCO)cc3N3CCC4(CC3)CC4)nn2)nc1N1CCC(F)(F)CC1 [Example 70, N-(4-(4-(6-(4,4-difluoropiperidin-1-yl)-5-(2-hydroxypropan-2-yl)pyridin-2-yl)-1H-1,2,3-triazol-1-yl)-3-(6-azaspiro[2.5]octan-6-yl)phenyl)-2-hydroxyethanesulfonamide] | 1230 nM | 582 nM | 700 nM
9 | CC(C)(O)c1cc(-c2cn(-c3ccc(NS(=O)(=O)CCO)cc3N3CCC4(CC3)CC4)nn2)nc(N2CCC(F)(F)CC2)n1 [Example 71, N-(4-(4-(2-(4,4-difluoropiperidin-1-yl)-6-(2-hydroxypropan-2-yl)pyrimidin-4-yl)-1H-1,2,3-triazol-1-yl)-3-(6-azaspiro[2.5]octan-6-yl)phenyl)-2-hydroxyethanesulfonamide] | 165 nM | 94 nM | 131 nM
10 | O=S(=O)(CCO)Nc1ccc(-n2cc(-c3cc(N4CCC(F)(F)CC4)c4ncccc4c3)nn2)c(N2CCC3(CC2)CC3)c1 [Example 72, N-(4-(4-(8-(4,4-difluoropiperidin-1-yl)quinolin-6-yl)-1H-1,2,3-triazol-1-yl)-3-(6-azaspiro[2.5]octan-6-yl)phenyl)-2-hydroxyethane-1-sulfonamide] | 190 nM | 20 nM | 25 nM
11 | O=S(=O)(CCO)Nc1ccc(-n2cc(-c3cc4cccnc4c(N4CCC(F)(F)CC4)c3F)nn2)c(N2CCC3(CC2)CC3)c1 [Example 73, N-(3-{6-azaspiro[2.5]octan-6-yl}-4-{4-[8-(4,4-difluoropiperidin-1-yl)-7-fluoroquinolin-6-yl]-1H-1,2,3-triazol-1-yl}phenyl)-2-hydroxyethane-1-sulfonamide] | 271 nM | 34 nM | 63 nM
12 | Nc1cc2cc(-c3cn(-c4ccc(NS(=O)(=O)CCO)cc4N4CCC5(CC4)CC5)nn3)cc(N3CCC(F)(F)CC3)c2nn1 [Example 77, N-(4-(4-(3-amino-8-(4,4-difluoropiperidin-1-yl)cinnolin-6-yl)-1H-1,2,3-triazol-1-yl)-3-(6-azaspiro[2.5]octan-6-yl)phenyl)-2-hydroxyethane-1-sulfonamide] | 64 nM | 13 nM | 12 nM
13 | Cc1cc(-c2cn(-c3ccc(NS(=O)(=O)CCO)cc3N3CCC4(CC3)CC4)nn2)cc(N2CCC(F)(F)CC2)c1[N+](=O)[O-] [Example 78, N-(3-{6-azaspiro[2.5]octan-6-yl}-4-{4-[3-(4,4-difluoropiperidin-1-yl)-5-methyl-4-nitrophenyl]-1H-1,2,3-triazol-1-yl}phenyl)-2-hydroxyethane-1-sulfonamide] | > 3000 nM | > 3000 nM | > 3000 nM
14 | Nc1ccc2cc(-c3cn(-c4ccc(NS(=O)(=O)CCO)cc4N4CCC5(CC4)CC5)nn3)c(F)c(N3CCC(F)(F)CC3)c2n1 [Example 80, N-(4-{4-[2-amino-8-(4,4-difluoropiperidin-1-yl)-7-fluoroquinolin-6-yl]-1H-1,2,3-triazol-1-yl}-3-{6-azaspiro[2.5]octan-6-yl}phenyl)-2-hydroxyethane-1-sulfonamide] | 475 nM | 21 nM | 26 nM

Further compounds by falling IC50 [1], results first:

Row | IC50 [1] | IC50 (OVCAR3 cells) | IC50 (HT29 cells) | Compound
15 | 807 nM | 119 nM | 127 nM | Cc1ccc2cc(-c3cn(-c4ccc(NS(=O)(=O)CCO)cc4N4CCC5(CC4)CC5)nn3)cc(N3CCC(F)(F)CC3)c2n1 [Example 74, N-(3-{6-azaspiro[2.5]octan-6-yl}-4-{4-[8-(4,4-difluoropiperidin-1-yl)-2-methylquinolin-6-yl]-1H-1,2,3-triazol-1-yl}phenyl)-2-hydroxyethane-1-sulfonamide]
16 | 437 nM | 108 nM | 153 nM | COc1cc(-c2cn(-c3ccc(NS(=O)(=O)CCO)cc3N3CCC4(CC3)CC4)nn2)c(F)c(N2CCC(F)(F)CC2)n1 [Example 63, N-(4-(4-(2-(4,4-difluoropiperidin-1-yl)-3-fluoro-6-methoxypyridin-4-yl)-1H-1,2,3-triazol-1-yl)-3-(6-azaspiro[2.5]octan-6-yl)phenyl)-2-hydroxyethane-1-sulfonamide]
17 | 383 nM | 116 nM | 127 nM | Cc1cc(-c2cn(-c3ccc(NS(=O)(=O)CCO)cc3N3CCC4(CC3)CC4)nn2)c(F)c(N2CCC(F)(F)CC2)n1 [Example 65, N-(4-(4-(2-(4,4-difluoropiperidin-1-yl)-3-fluoro-6-methylpyridin-4-yl)-1H-1,2,3-triazol-1-yl)-3-(6-azaspiro[2.5]octan-6-yl)phenyl)-2-hydroxyethane-1-sulfonamide]
18 | 112 nM | 159 nM | 250 nM | Cc1cc(-c2cn(-c3cnc(NS(=O)(=O)CCO)cc3N3CCC4(CC3)CC4)nn2)cc(N2CCC(F)(F)CC2)n1 [Example 68, N-(4-{6-azaspiro[2.5]octan-6-yl}-5-{4-[2-(4,4-difluoropiperidin-1-yl)-6-methylpyridin-4-yl]-1H-1,2,3-triazol-1-yl}pyridin-2-yl)-2-hydroxyethane-1-sulfonamide]
19 | 75 nM | 12 nM | 16 nM | O=S(=O)(CCO)Nc1ccc(-n2cc(-c3cc(N4CCC(F)(F)CC4)c4nnccc4c3)nn2)c(N2CCC3(CC2)CC3)c1 [Example 76, N-(4-(4-(8-(4,4-difluoropiperidin-1-yl)cinnolin-6-yl)-1H-1,2,3-triazol-1-yl)-3-(6-azaspiro[2.5]octan-6-yl)phenyl)-2-hydroxyethane-1-sulfonamide]
20 | 24 nM | 11 nM | 7 nM | Nc1ncc(-c2cn(-c3ccc(NS(=O)(=O)CCO)cc3N3CCC4(CC3)CC4)nn2)nc1N1CCC(F)(F)CC1 [Example 79, N-(4-{4-[5-amino-6-(4,4-difluoropiperidin-1-yl)pyrazin-2-yl]-1H-1,2,3-triazol-1-yl}-3-{6-azaspiro[2.5]octan-6-yl}phenyl)-2-hydroxyethane-1-sulfonamide]
